Reference: patent publication US20130252930A1 (BIOMARIN PHARMACEUTICAL INC., priority 2010, published 2013)
Like-named read-outs stand apart in the source and are kept apart here.

Columns and labels:
[1] = molecular target: T1, CYP17 (human testicular microsome) (Homo sapiens, UniProt P05093); assay: CYP17 enzymatic assay (% inhibition at 1 nM) (Biological Example 12); assay type: biochemical
T1 construct: using microsomal fraction from human testis (Celsis Cat #S00110) as the enzyme source; tissue Celsis S00110; host or cells: human testis microsomal fraction
T1 sequence (P05093 1-508): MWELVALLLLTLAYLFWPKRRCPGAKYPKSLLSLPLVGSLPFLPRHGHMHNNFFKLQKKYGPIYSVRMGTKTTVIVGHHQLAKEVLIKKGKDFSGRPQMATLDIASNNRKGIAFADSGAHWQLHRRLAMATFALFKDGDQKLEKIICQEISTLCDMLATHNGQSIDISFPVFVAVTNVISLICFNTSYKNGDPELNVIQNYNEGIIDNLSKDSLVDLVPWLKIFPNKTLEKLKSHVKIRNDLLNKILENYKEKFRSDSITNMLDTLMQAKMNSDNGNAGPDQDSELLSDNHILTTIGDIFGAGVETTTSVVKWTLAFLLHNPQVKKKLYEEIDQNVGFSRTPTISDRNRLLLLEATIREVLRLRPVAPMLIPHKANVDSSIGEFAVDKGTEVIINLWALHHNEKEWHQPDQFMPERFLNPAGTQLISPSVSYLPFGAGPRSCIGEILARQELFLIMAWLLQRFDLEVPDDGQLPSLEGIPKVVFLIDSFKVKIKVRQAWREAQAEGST

[2] = test system: rat Cyp11B enzyme (rat adrenal mitochondria); assay: CYP11B enzymatic assay (% inhibition at 100 nM) (Biological Example 9); assay type: biochemical; settings: compound at 100 nM
Experimental: Adrenals excised from Sprague Dawley rats were homogenized, and mitochondria fraction were prepared by a series of centrifugation as described in Shuji Ohno, et al. J. of Steroid Biochemistry & Molecular Biology 2002, 80, 355-363. Prepared mitochondria protein was washed and resuspended in Buffer B (0.21 M mannitol, 70 mM sucrose, 5 mM MgCl2, 0.5 mM CaCl2, 20 mM Tris-HCl (pH 7.4) and 1 mM DTT, […]). The protein concentration was determined by BCA assay and stored as 10 μL aliquots at −80° C.
The rat Cyp11B enzyme assay was performed in 96-well plates. Typical assays were carried out in total 50 μL volume that included test compounds at 100 nM concentration, 1× Buffer B, 0.5 mM NADPH, 0.1 μM 11-deoxycortisol, and 2 μL of prepared rat adrenal mitochondria (added last). Reaction without test compound served as positive control and reaction without NADPH served as negative control. Reactions were allowed to incubate at 37° C. for 60 min with gentle shaking. The reaction was stopped by directly applying the enzymatic reaction mixture (1:5 diluted in ELISA assay buffer) to ELISA plate for evaluation of cortisol concentration according to manufacturer's protocol (Assay Design).
The mean absorbance value for each sample was used to determine the corresponding concentration from the standard curve. Amount of cortisol in the negative control (reaction that dis not include NADPH) was subtracted from total cortisol. Percent inhibition (inhibition %) of the compound was calculated using normalized cortisol concentration based on following formula: 100−([Cortisol] of compound/[Cortisol] of positive control *100).

[3] = molecular target: T1, CYP17 (human testicular microsome); assay: CYP17 enzymatic assay (IC50) (Biological Example 4); assay type: biochemical
[4] = molecular target: T2, Cyp21 enzyme (Human HEK 293-Cyp21 stable transfected cells) (Homo sapiens, UniProt P08686); assay: CYP21-HEK293 enzymatic assay (IC50) (Biological Example 11); assay type: cell-based; settings: HEK 293-Cyp21 cells
T2 construct: expressed in transfected cells
T2 sequence (P08686 1-495): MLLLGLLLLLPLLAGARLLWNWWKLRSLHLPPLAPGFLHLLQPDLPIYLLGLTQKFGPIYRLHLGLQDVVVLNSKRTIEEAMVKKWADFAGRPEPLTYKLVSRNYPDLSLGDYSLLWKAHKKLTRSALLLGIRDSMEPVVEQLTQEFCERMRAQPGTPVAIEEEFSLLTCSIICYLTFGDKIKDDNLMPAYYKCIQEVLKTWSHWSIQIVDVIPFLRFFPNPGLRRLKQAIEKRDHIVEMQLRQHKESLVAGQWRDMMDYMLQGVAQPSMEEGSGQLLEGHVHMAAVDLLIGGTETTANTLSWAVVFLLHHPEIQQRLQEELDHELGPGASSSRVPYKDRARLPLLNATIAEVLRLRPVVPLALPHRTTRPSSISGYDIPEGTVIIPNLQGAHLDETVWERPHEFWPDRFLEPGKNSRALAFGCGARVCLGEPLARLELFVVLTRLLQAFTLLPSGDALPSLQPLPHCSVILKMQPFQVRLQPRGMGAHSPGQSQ

[5] = Human liver microsome stability assay (Biological Example 8b); settings: liver microsomes, pH 7.4
CYP17 (H295R cells) = molecular target: T3, CYP17 (H295R cells) (Homo sapiens, UniProt P05093); assay: CYP17 cellular assay (IC50), testosterone in H295R cells (Biological Example 7); assay type: cell-based; settings: H295R cells, read-out: Biological Example No. 7: CYP17 cellular assay IC50
T3 construct: endogenous in cells; host or cells: H295R cells
T3 sequence (P05093 1-508): T1 sequence (P05093 1-508)
Outline: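 H295R cells cultured 24 h, then exposed to compound at 100, 10, 1, 0.1 nM final in serum-free DMEM/F-12 with ITS+ and 0.1% methanol for 24 h at 37 °C. Medium testosterone measured by ELISA and plotted against compound concentration.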

[6] = compound at 1 nM, read-out: CYP17 enzymatic assay % inhibition at 1 nM (Biological Example No. 12)
[7] = compound at 1 nM, read-out: Biological Example No. 12: CYP17 enzymatic assay % inhibition at 1 nM
[8] = read-out: Biological Example No. 11: CYP21-HEK293 enzymatic assay IC50
[9] = human testicular microsome, read-out: Biological Example No. 4: CYP17 enzymatic assay IC50

Compound	inhibition at 0.001 µM [1, 7]	IC50 [4, 8]	IC50 (CYP17 (H295R cells); testosterone)	IC50 [3, 9]	half-life at 1 μM [5]	further results
CN1C(=O)C[C@@]2(C)C1=CCC1C2CC[C@]2(C)C(n3ccnc3)=CCC12 (stereo partly drawn) [Compound 186, (3aR,5aS)-6-(1H-imidazol-1-yl)-1,3a,5a-trimethyl-3,3a,3b,4,5,5a,8,8a,8b,9-decahydroindeno[5,4-e]indol-2(1H)-one]						inhibition at 0.001 µM [1, 6]: 10 to 50%; CYP11B enzymatic assay % inhibition at 100 nM (Biological Example No. 9) [2]: U (U means the compound had a percent inhibition of greater than or equal to 32%)
Cc1cncc(C2=CCC3C4CC=C5N(C)C(=O)C[C@]5(C)C4CC[C@]23C)c1 (stereo partly drawn) [Compound 188, (3aR,5aS)-1,3a,5a-trimethyl-6-(5-methylpyridin-3-yl)-3,3a,3b,4,5,5a,8,8a,8b,9-decahydroindeno[5,4-e]indol-2(1H)-one]						inhibition at 0.001 µM [1, 6]: 10 to 50%; CYP11B enzymatic assay % inhibition at 100 nM (Biological Example No. 9) [2]: T (T means the compound had a percent inhibition of less than 32% when tested at 100 nM)
CCOc1cncc(C2=CCC3C4CC=C5N(C)C(=O)C[C@]5(C)C4CC[C@]23C)c1 (stereo partly drawn) [Compound 189, (3aR,5aS)-6-(5-ethoxypyridin-3-yl)-1,3a,5a-trimethyl-3,3a,3b,4,5,5a,8,8a,8b,9-decahydroindeno[5,4-e]indol-2(1H)-one]						inhibition at 0.001 µM [1, 6]: 10 to 50%; CYP11B enzymatic assay % inhibition at 100 nM (Biological Example No. 9) [2]: U (U means the compound had a percent inhibition of greater than or equal to 32%)
C[C@]12C=CC(=O)C=C1C1(CC1)C[C@@H]1[C@@H]2CC[C@]2(C)C(c3cccnc3)=CC[C@@H]12 [Compound 316, (10R,13S)-10,13-dimethyl-17-(pyridin-3-yl)-7,8,9,11,12,13,14,15-octahydrospiro[cyclopenta[a]phenanthrene-6,1′-cyclopropan]-3(10H)-one]	10 to 50%	< 10 nM	< 15 nM		1 to 50 min	IC50 [3]: < 11 nM
C[C@]12CC[C@H]3[C@@H](CCC4=CC(=O)CC[C@@]43C)C1=CC=C2c1cncc(F)c1 [Compound 352, (10R,13S)-17-(5-fluoropyridin-3-yl)-10,13-dimethyl-6,7,8,9,10,11,12,13-octahydro-1H-cyclopenta[a]phenanthren-3(2H)-one]	> 50%	10 to 100 nM	< 15 nM	< 11 nM	1 to 50 min	
CC1CC2C(CC[C@]3(C)C(c4cccnc4)=CCC23)[C@@]2(C)CCNC(=O)C=C12 (stereo partly drawn) [Compound 368, (5aR,7aS)-5a,7a,12-trimethyl-8-(pyridin-3-yl)-3,4,5,5a,5b,6,7,7a,10,10a,11,12-dodecahydrocyclopenta[5,6]naphtho[1,2-d]azepin-2(10bH)-one]	> 50%	< 10 nM	< 15 nM	< 11 nM	1 to 50 min	
C[C@]12CC[C@H](O)CC1=CC[C@@H]1[C@@H]2CC[C@]2(C)C(n3cncc3C#N)=CC[C@@H]12 [Compound 426, 1-((3S,10R,13S)-3-hydroxy-10,13-dimethyl-2,3,4,7,8,9,10,11,12,13,14,15-dodecahydro-1H-cyclopenta[a]phenanthren-17-yl)-1H-imidazole-5-carbonitrile]	10 to 50%					Biological Example No. 9: CYP11B enzymatic assay % inhibition at 100 nM [2]: U (U means the compound had a percent inhibition of greater than or equal to 32%)
C[C@]12CCC(=O)C=C1C(F)CC1C2CC[C@]2(C)C(c3cccnc3)=CCC12 (stereo partly drawn) [D, (10R,13S)-6-fluoro-10,13-dimethyl-17-(pyridin-3-yl)-6,7,8,9,10,11,12,13,14,15-decahydro-1H-cyclopenta[a]phenanthren-3(2H)-one, reference compound]					1 to 50 min	IC50 ([3]; human testicular microsome, DHEA by ELISA, read-out: Biological Example No. 4: CYP17 enzymatic assay IC50): < 11 nM; inhibition at 0.001 µM ([1]; 1 nM compound, DHEA by ELISA, read-out: Biological Example No. 12: CYP17 percent inhibition at 1 nM): > 50%; IC50 ([4]; DOC by ELISA, read-out: Biological Example No. 11: CYP21-HEK293 IC50): > 1000 nM; IC50 (CYP17 (H295R cells); testosterone by ELISA, 24 hours): < 15 nM

Continued, in another order:

inhibition at 0.001 µM [1, 7]	IC50 [4, 8]	IC50 (CYP17 (H295R cells); testosterone)	IC50 [3, 9]	Compound	half-life at 1 μM [5]	further results
10 to 50%	< 10 nM	< 15 nM	< 11 nM	C[C@]12CCNC(=O)C=C1C1(CC1)CC1C2CC[C@]2(C)C(c3cccnc3)=CCC12 (stereo partly drawn) [Compound 369, (5aR,7aS)-5a,7a-dimethyl-8-(pyridin-3-yl)-3,4,5,5a,5b,6,7,7a,10,10a,10b,11-dodecahydro-2H-spiro[cyclopenta[5,6]naphtho[1,2-d]azepine-12,1′-cyclopropan]-2-one]	1 to 50 min	
> 50%	> 1000 nM	< 15 nM	< 11 nM	C[C@]12CCNC(=O)C=C1C1CC1[C@@H]1[C@@H]2CC[C@]2(C)C(c3cncc(F)c3)=CC[C@@H]12 (stereo partly drawn) [Compound 388, (5aR,7aS)-8-(5-fluoropyridin-3-yl)-5a,7a-dimethyl-3,4,5,5a,5b,6,7,7a,10,10a,10b,10c,11,11a-tetradecahydro-2H-cyclopenta[5,6]cyclopropa[3,4]naphtho[1,2-d]azepin-2-one]	1 to 50 min	
10 to 50%				CN1C(=O)CC[C@@]2(C)C1=CCC1C2CC[C@]2(C)C(c3cncc(F)c3)=CCC12 (stereo partly drawn) [Compound 428, (4aR,6aS)-7-(5-fluoropyridin-3-yl)-1,4a,6a-trimethyl-4,4a,4b,5,6,6a,9,9a,9b,10-decahydro-1H-indeno[5,4-f]quinolin-2(3H)-one]		Biological Example No. 9: CYP11B enzymatic assay % inhibition at 100 nM [2]: U (U means the compound had a percent inhibition of greater than or equal to 32%)
< 10%				CN1C(=O)CC[C@@]2(C)C1=CC[C@@H]1[C@@H]2CC[C@]2(C)C(n3cncc3C#N)=CC[C@@H]12 [Compound 433, 1-((4aR,6aS)-1,4a,6a-trimethyl-2-oxo-2,3,4,4a,4b,5,6,6a,9,9a,9b,10-dodecahydro-1H-indeno[5,4-f]quinolin-7-yl)-1H-imidazole-5-carbonitrile]		Biological Example No. 9: CYP11B enzymatic assay % inhibition at 100 nM [2]: T (T means the compound had a percent inhibition of less than 32% when tested at 100 nM)
